Reference: PMC7932537, “Quantitative profiling of protease specificity” (PLoS Computational Biology, 2021)

Tests used:
[1] = target: T1, MMP-2 (Homo sapiens, UniProt P08253); assay: K(obs) of individual phage substrates (set of 1369); type: biochemical; settings: MMP2
T1 sequence (P08253 110-660): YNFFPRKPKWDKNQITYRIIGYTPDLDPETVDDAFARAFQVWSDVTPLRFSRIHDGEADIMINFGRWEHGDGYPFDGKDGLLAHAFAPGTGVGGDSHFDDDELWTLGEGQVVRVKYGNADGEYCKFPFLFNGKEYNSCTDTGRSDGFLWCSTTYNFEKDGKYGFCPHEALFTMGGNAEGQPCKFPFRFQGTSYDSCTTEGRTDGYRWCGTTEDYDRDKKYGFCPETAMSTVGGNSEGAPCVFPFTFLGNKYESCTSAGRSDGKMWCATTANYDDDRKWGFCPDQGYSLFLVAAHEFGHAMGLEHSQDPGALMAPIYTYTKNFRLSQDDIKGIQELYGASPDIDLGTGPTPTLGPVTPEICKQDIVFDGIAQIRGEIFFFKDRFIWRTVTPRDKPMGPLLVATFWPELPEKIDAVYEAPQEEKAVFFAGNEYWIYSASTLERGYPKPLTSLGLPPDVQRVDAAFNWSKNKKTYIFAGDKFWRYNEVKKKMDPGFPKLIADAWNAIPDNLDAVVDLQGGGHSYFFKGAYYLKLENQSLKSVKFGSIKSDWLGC

[2] = target: MMP-9 (Homo sapiens, UniProt P14780); assay: as above; type: biochemical; settings: MMP9, individual phage substrates, set of 1369 peptides
[3] = individual phage substrates, set of 1369 peptides, cleavage position marked by '-' in the sequence
[4] = '-' marks the cleavage position (P1-P1')
[5] = individual phage substrate from the set of 1369 peptides, cleavage position marked by the dash in the sequence
[6] = dash in sequence marks cleavage position

Sequence of MMP-9 (P14780 94-707): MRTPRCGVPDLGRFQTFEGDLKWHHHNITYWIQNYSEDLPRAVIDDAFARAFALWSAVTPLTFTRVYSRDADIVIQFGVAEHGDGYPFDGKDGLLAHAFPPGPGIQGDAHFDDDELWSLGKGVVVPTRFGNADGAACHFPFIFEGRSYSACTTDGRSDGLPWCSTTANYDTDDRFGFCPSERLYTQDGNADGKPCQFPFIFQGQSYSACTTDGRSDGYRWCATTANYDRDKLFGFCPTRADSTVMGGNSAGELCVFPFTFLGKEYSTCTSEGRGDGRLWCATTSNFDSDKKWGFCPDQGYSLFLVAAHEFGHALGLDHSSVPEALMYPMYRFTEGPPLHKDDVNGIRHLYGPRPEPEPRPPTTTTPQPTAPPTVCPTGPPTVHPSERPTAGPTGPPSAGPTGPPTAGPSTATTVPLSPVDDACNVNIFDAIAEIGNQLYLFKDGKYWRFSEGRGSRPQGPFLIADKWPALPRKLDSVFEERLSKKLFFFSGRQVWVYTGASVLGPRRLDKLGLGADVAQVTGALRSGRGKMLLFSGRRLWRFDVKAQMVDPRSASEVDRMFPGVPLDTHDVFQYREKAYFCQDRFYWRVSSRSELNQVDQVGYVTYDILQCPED

Substance | Kobs [1, 3] [M⁻¹ s⁻¹] | Kobs [2, 4] [M⁻¹ s⁻¹] | Kobs [1, 5] [M⁻¹ s⁻¹] | Kobs [2, 6] [M⁻¹ s⁻¹]
VFALN-LTASG | 12792.1 | 12792.1 | – | –
VFYQS-LTASG | 12792.1 | 0 | – | –
VHAVW-LTASG | 12792.1 | 12792.1 | – | –
VHVHA-LTASG | 5461.43 | 2476.66 | – | –
VIVAA-LTASG | 12792.1 | 10866.7 | – | –
VKAQH-LTASG | – | – | 7815.03 | 2476.66
VKVWG-LTASG | – | – | 5461.43 | 8321.48
VMHQN-LTASG | – | – | 8941.32 | 171.876
VNVRN-LTASG | – | – | 12792.1 | 5269.78
VPPMP-LTASG | 12792.1 | 12792.1 | – | –
VQLRS-LTASG | 12792.1 | 7015.91 | – | –
VRTMA-LTASG | 142.481 | 1030.73 | – | –
VSISF-LTASG | 12792.1 | 654.784 | – | –
VSVDQ-LTASG | – | – | 0 | 0
VTPLY-LTASG | 12792.1 | 12792.1 | – | –
VTVIA-LTASG | 1711.63 | 951.362 | – | –
VVAVS-LTASG | 12792.1 | 9740.44 | – | –
VWGRA-LTASG | 7386.83 | 8321.48 | – | –
VYSAY-LTASG | – | – | 8941.32 | 142.481

Substance | Kobs [1, 3] [M⁻¹ s⁻¹] | Kobs [2, 4] [M⁻¹ s⁻¹] | Kobs [1, 5] [M⁻¹ s⁻¹] | Kobs [2, 6] [M⁻¹ s⁻¹]
WHFGA-LTASG | 12792.1 | 0 | – | –
WLAQA-LTASG | 12792.1 | 7815.03 | – | –
WLYAH-YTASG | – | – | 1816.46 | 113.394
WNSLN-LTASG | – | – | 484.315 | 451.441
WSVQL-LTASG | 551.253 | 355.093 | – | –
WVANM-ITASG | 7386.83 | 1513.13 | – | –
YAPGS-MTASG | 5269.78 | 3741.87 | – | –
YATWS-MTASG | 0 | 27.918 | – | –
YFARQ-LTASG | 2038.8 | 3438.54 | – | –
YFPLD-MTASG | – | – | 3637.04 | 7815.03
YKAFT-MTASG | – | – | 113.394 | 386.839
YLPRA-ITASG | 12792.1 | 12792.1 | – | –
YNVNY-LTASG | – | – | 3964.21 | 201.585
YQTMA-LTASG | 551.253 | 585.336 | – | –
YRVAF-LTASG | 7015.91 | 5090.5 | – | –
YSALP-MTASG | – | – | 1561.44 | 3964.21
YSPSL-ITASG | – | – | 4470.66 | 2476.66
YTMLH-LTASG | – | – | 726.013 | 0
YYASH-LTASG | – | – | 7015.91 | 1373.05
